According to US10639287B2, “Compounds for the treatment of mitochondrial diseases” (UNIVERSITE PARIS-SUD, priority 2014, dated 2020):

Tests used:
[1] = tested on: Saccharomyces cerevisiae mip1^G651S yeast strain; assay: Inhibition of growth (MIC) / maximum tolerated concentration in yeast culture (DO600 after 24 h); type: cell-based; conditions: 1-512 μM tested
Method: From o/n pre-culture in selective medium (SC-URA, 2% ethanol (v/v)), 50 mL of rich YPD medium (1% Yeast Extract, 0.5% Bacto Peptone, 2% Glucose) were seeded at a DO600 of 0.05/mL. The 50 mL of culture were distributed in a series of ten tubes on the basis of 2 mL of culture/tube, with 4 mL of culture being placed in the last tube. […] From this tube (tube 1), 2 mL of culture were placed into tube 2. Tube 2 contained 4 ml of culture and clofilium tosylate at a concentration of 256 μM. 2 mL of tube 2 were added to tube 3, and so on. Each tube contained the drug at a concentration equal to half that of the previous tube. Two controls were provided—without clofilium tosylate and with DMSO (the volume being the same as that used to dilute the clofilium tosylate). The cultures were incubated at 28° C. with stirring for 24 hours, and the optical density (DO600) was measured.

[2] = tested on: wild-type Mip1 or mutated Mip1G651S yeast protein; assay: Amount of Mip1 proteins in mitochondria-enriched extracts (SDS/PAGE, western blot); type: cell-based, Saccharomyces cerevisiae; conditions: 32 μM vs DMSO
Method: The analysis of the effect of clofilium tosylate on the amount of wild-type or mutated Mip1 proteins was carried out on cell extracts enriched in mitochondria. In order to visualise the expression of the Mip1 and Mip1G651S proteins, the sequence encoding three HA epitopes was cloned in 3′ and in phase with the coding sequence of Mip1 and Mip1G651S.
The yeast cells were cultured in selective medium (SC-TRP, 2% ethanol) overnight. Then, the cells were seeded at an initial optical density (DO600) of 0.05 in 100 mL of YPE (1% Yeast Extract, 0.5% Bacto Peptone, 2% Ethanol) supplemented either by DMSO or by 32 μM clofilium tosylate at 28° C. with stirring until a DO600 between 3 and 4 was achieved. The cells were centrifuged at 3000 g for 5 min and washed with water. The isolation of the fraction enriched in mitochondria and protein extraction of this fraction were carried out according to the protocol described by Hoffman et al., 2009 (Hofmann, L., Saunier, R., Cossard, R., Esposito, M., Rinaldi, T. and Delahodde, A. (2009) A non-proteolytic proteasome activity controls organelle fission in yeast. J. Cell. Sci., 122, 3673-3682).
The protein extracts of the fractions enriched in mitochondria were analysed by SDS/PAGE gel electrophoresis (6% for the analysis of the proteins Mip1-HA and Mip1G651S-HA and 10% for the analysis of Cox2 mitochondrial proteins (encoded by mtDNA) and porin). […]

[3] = tested on: fibroblasts from a patient with a mutation on each allele of the POLG gene; assay: Amount of mtDNA (qPCR) in patient fibroblasts, cell growth conditions; type: cell-based, human; conditions: 2.5 μM, DMEM high glucose, harvested at 100% confluence
Method: Skin fibroblasts from the control and from the patient were cultured to 100% confluence in a complete Dulbecco's Modified Eagle Medium (DMEM) high glucose medium (4.5 g/L of D-glucose, 110 mg/L sodium pyruvate, 10% foetal bovine serum, 1% penicillin/streptomycin from the stock solution containing 10,000 I.U. penicillin and 10,000 μg/mL streptomycin) at 37° C. under 5% CO2. At confluence, the cultures were trypsinised and placed back in culture at 30% confluence in a complete DMEM high glucose medium supplemented with either 0.1% DMSO or with 2.5 μM clofilium tosylate. They were incubated at 37° C. under 5% CO2 and harvested at 100% confluence. The total fibroblast DNAs were extracted by the phenol-chloroform method, and the mtDNA and nuclear DNA were quantified by qPCR as described in Sarzi et al., 2007 (Sarzi, E., Bourdon, A., Chrétien, D., Zarhrate, M., Corcos, J., Slama, A., Cormier-Daire, V., De Lonlay, P., Munnich, A. and Rötig, A. (2007) Mitochondrial DNA Depletion is a Prevalent Cause of Multiple Respiratory Chain Deficiency in Childhood. J Pediatr, 105, 531-534).

CCCCCCC[N+](CC)(CC)CCCCc1ccc(Cl)cc1.Cc1ccc(S(=O)(=O)[O-])cc1 [clofilium tosylate]
concentration chosen for the study in S. cerevisiae (determination of the maximum concentration tolerated) [1]: 32 µM
amount of wild-type Mip1 or mutated Mip1G651S yeast protein [2]: increased
amount of mtDNA, cell growth conditions [3]: slightly increased
